# In paper PMC8078842 (PLoS Neglected Tropical Diseases, 2021):
# Test: In situ brain/choroid plexus perfusion (10 or 30 minutes) with capillary depletion
# Conditions: 30 min perfusion, not corrected for vascular space
substance,measurement,setting,value
[^3H(G)]pentamidine,RTISSUE/PLASMA% (mean ± SEM) of [^3H]pentamidine,"Cerebellum, 0.1% F68 + 15.7 nM pent",14.44 (± 2.47) %
same,RTISSUE/PLASMA% (mean ± SEM) of [^3H]pentamidine,"Cerebellum, 0.5% F68 + 15.7 nM pent",17.28 (± 3.54) %
same,RTISSUE/PLASMA% (mean ± SEM) of [^3H]pentamidine,"Cerebellum, Control (15.7 nM pent)",12.92 (± 1.10) %
same,RTISSUE/PLASMA% (mean ± SEM) of [^3H]pentamidine,"Choroid plexus, 0.01% F68 + 15.7 nM pent",835.26 (± 260.20) %
same,RTISSUE/PLASMA% (mean ± SEM) of [^3H]pentamidine,"Choroid plexus, 0.1% F68 + 15.7 nM pent",944.85 (± 235.90) %
same,RTISSUE/PLASMA% (mean ± SEM) of [^3H]pentamidine,"Choroid plexus, 0.5% F68 + 15.7 nM pent",1844.80 (± 493.51) %
same,RTISSUE/PLASMA% (mean ± SEM) of [^3H]pentamidine,"Choroid plexus, Control (15.7 nM pent)",1241.60 (± 92.86) %
same,RTISSUE/PLASMA% (mean ± SEM) of [^3H]pentamidine,"Corpus callosum, 0.01% F68 + 15.7 nM pent",2.02 (± 1.22) %
same,RTISSUE/PLASMA% (mean ± SEM) of [^3H]pentamidine,"Corpus callosum, 0.1% F68 + 15.7 nM pent",9.47 (± 0.94) %
same,RTISSUE/PLASMA% (mean ± SEM) of [^3H]pentamidine,"Corpus callosum, 0.5% F68 + 15.7 nM pent",15.72 (± 6.78) %
same,RTISSUE/PLASMA% (mean ± SEM) of [^3H]pentamidine,"Corpus callosum, Control (15.7 nM pent)",8.19 (± 1.97) %
same,RTISSUE/PLASMA% (mean ± SEM) of [^3H]pentamidine,"Frontal cortex, 0.01% F68 + 15.7 nM pent",9.00 (± 1.47) %
same,RTISSUE/PLASMA% (mean ± SEM) of [^3H]pentamidine,"Frontal cortex, 0.1% F68 + 15.7 nM pent",11.91 (± 1.35) %
same,RTISSUE/PLASMA% (mean ± SEM) of [^3H]pentamidine,"Frontal cortex, 0.5% F68 + 15.7 nM pent",17.54 (± 3.58) %
same,RTISSUE/PLASMA% (mean ± SEM) of [^3H]pentamidine,"Frontal cortex, Control (15.7 nM pent)",10.35 (± 0.84) %
same,RTISSUE/PLASMA% (mean ± SEM) of [^3H]pentamidine,"Hippocampus, 0.01% F68 + 15.7 nM pent",6.05 (± 1.20) %
same,RTISSUE/PLASMA% (mean ± SEM) of [^3H]pentamidine,"Hippocampus, 0.1% F68 + 15.7 nM pent",7.93 (± 1.20) %
same,RTISSUE/PLASMA% (mean ± SEM) of [^3H]pentamidine,"Hippocampus, 0.5% F68 + 15.7 nM pent",10.65 (± 2.55) %
same,RTISSUE/PLASMA% (mean ± SEM) of [^3H]pentamidine,"Hippocampus, Control (15.7 nM pent)",8.19 (± 0.30) %
same,RTISSUE/PLASMA% (mean ± SEM) of [^3H]pentamidine,"Homogenate (capillary depletion), 0.01% F68 + 15.7 nM pent",9.63 (± 0.93) %
same,RTISSUE/PLASMA% (mean ± SEM) of [^3H]pentamidine,"Homogenate (capillary depletion), 0.1% F68 + 15.7 nM pent",11.19 (± 1.62) %
same,RTISSUE/PLASMA% (mean ± SEM) of [^3H]pentamidine,"Homogenate (capillary depletion), 0.5% F68 + 15.7 nM pent",14.45 (± 3.93) %
same,RTISSUE/PLASMA% (mean ± SEM) of [^3H]pentamidine,"Homogenate (capillary depletion), Control (15.7 nM pent)",10.18 (± 0.92) %
same,RTISSUE/PLASMA% (mean ± SEM) of [^3H]pentamidine,"Hypothalamus, 0.01% F68 + 15.7 nM pent",8.90 (± 1.42) %
same,RTISSUE/PLASMA% (mean ± SEM) of [^3H]pentamidine,"Hypothalamus, 0.1% F68 + 15.7 nM pent",11.17 (± 1.42) %
same,RTISSUE/PLASMA% (mean ± SEM) of [^3H]pentamidine,"Hypothalamus, 0.5% F68 + 15.7 nM pent",18.73 (± 4.67) %
same,RTISSUE/PLASMA% (mean ± SEM) of [^3H]pentamidine,"Hypothalamus, Control (15.7 nM pent)",18.49 (± 4.17) %
same,RTISSUE/PLASMA% (mean ± SEM) of [^3H]pentamidine,"Occipital cortex, 0.01% F68 + 15.7 nM pent",8.80 (± 1.47) %
same,RTISSUE/PLASMA% (mean ± SEM) of [^3H]pentamidine,"Occipital cortex, 0.1% F68 + 15.7 nM pent",12.14 (± 1.62) %
same,RTISSUE/PLASMA% (mean ± SEM) of [^3H]pentamidine,"Occipital cortex, 0.5% F68 + 15.7 nM pent",15.85 (± 2.71) %
same,RTISSUE/PLASMA% (mean ± SEM) of [^3H]pentamidine,"Occipital cortex, Control (15.7 nM pent)",9.52 (± 1.08) %
same,RTISSUE/PLASMA% (mean ± SEM) of [^3H]pentamidine,"Pellet (capillary depletion), 0.01% F68 + 15.7 nM pent",18.16 (± 2.79) %
same,RTISSUE/PLASMA% (mean ± SEM) of [^3H]pentamidine,"Pellet (capillary depletion), 0.1% F68 + 15.7 nM pent",22.15 (± 4.44) %
same,RTISSUE/PLASMA% (mean ± SEM) of [^3H]pentamidine,"Pellet (capillary depletion), Control (15.7 nM pent)",16.45 (± 2.76) %
same,RTISSUE/PLASMA% (mean ± SEM) of [^3H]pentamidine,"Pineal gland, 0.01% F68 + 15.7 nM pent",341.30 (± 39.57) %
same,RTISSUE/PLASMA% (mean ± SEM) of [^3H]pentamidine,"Pineal gland, 0.1% F68 + 15.7 nM pent",342.95 (± 92.02) %
same,RTISSUE/PLASMA% (mean ± SEM) of [^3H]pentamidine,"Pineal gland, 0.5% F68 + 15.7 nM pent",525.94 (± 122.85) %
same,RTISSUE/PLASMA% (mean ± SEM) of [^3H]pentamidine,"Pineal gland, Control (15.7 nM pent)",664.25 (± 82.42) %
same,RTISSUE/PLASMA% (mean ± SEM) of [^3H]pentamidine,"Pituitary gland, 0.01% F68 + 15.7 nM pent",324.42 (± 44.06) %
same,RTISSUE/PLASMA% (mean ± SEM) of [^3H]pentamidine,"Pituitary gland, 0.1% F68 + 15.7 nM pent",434.10 (± 59.56) %
same,RTISSUE/PLASMA% (mean ± SEM) of [^3H]pentamidine,"Pituitary gland, 0.5% F68 + 15.7 nM pent",881.90 (± 170.25) %
same,RTISSUE/PLASMA% (mean ± SEM) of [^3H]pentamidine,"Pituitary gland, Control (15.7 nM pent)",394.51 (± 52.42) %
same,RTISSUE/PLASMA% (mean ± SEM) of [^3H]pentamidine,"Pons, 0.01% F68 + 15.7 nM pent",17.61 (± 3.70) %
same,RTISSUE/PLASMA% (mean ± SEM) of [^3H]pentamidine,"Pons, 0.1% F68 + 15.7 nM pent",20.36 (± 3.70) %
same,RTISSUE/PLASMA% (mean ± SEM) of [^3H]pentamidine,"Pons, 0.5% F68 + 15.7 nM pent",20.43 (± 5.67) %
same,RTISSUE/PLASMA% (mean ± SEM) of [^3H]pentamidine,"Pons, Control (15.7 nM pent)",15.16 (± 1.48) %
same,RTISSUE/PLASMA% (mean ± SEM) of [^3H]pentamidine,"Supernatant (capillary depletion), 0.01% F68 + 15.7 nM pent",3.77 (± 0.94) %
same,RTISSUE/PLASMA% (mean ± SEM) of [^3H]pentamidine,"Supernatant (capillary depletion), 0.1% F68 + 15.7 nM pent",6.63 (± 0.52) %
same,RTISSUE/PLASMA% (mean ± SEM) of [^3H]pentamidine,"Supernatant (capillary depletion), 0.5% F68 + 15.7 nM pent",6.45 (± 1.35) %
same,RTISSUE/PLASMA% (mean ± SEM) of [^3H]pentamidine,"Supernatant (capillary depletion), Control (15.7 nM pent)",5.54 (± 0.37) %
same,RTISSUE/PLASMA% (mean ± SEM) of [^3H]pentamidine,"Thalamus, 0.01% F68 + 15.7 nM pent",7.99 (± 1.06) %
same,RTISSUE/PLASMA% (mean ± SEM) of [^3H]pentamidine,"Thalamus, 0.1% F68 + 15.7 nM pent",11.08 (± 1.06) %
same,RTISSUE/PLASMA% (mean ± SEM) of [^3H]pentamidine,"Thalamus, 0.5% F68 + 15.7 nM pent",13.52 (± 3.10) %
same,RTISSUE/PLASMA% (mean ± SEM) of [^3H]pentamidine,"Thalamus, Control (15.7 nM pent)",9.94 (± 1.95) %
